What was measured:
Test in all cases: combination Emax (second highest fraction inhibited in the dose matrix, 72 h); higher = more inhibition; extreme values may be limits of the assay
[1] = tested on: SU-DHL-6 (B-Cell Non-Hodgkin's Lymphoma)
Outline: (§1)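 Bliss excess equals the observed combination effect minus the expected value EA + EB − EA·EB, where EA and EB are the effects of each agent alone. Combination Emax is the second-highest inhibition within the matrix. Inhibition was scaled from CellTiter-Glo 2.0 luminescence, with 0 set by vehicle wells and 1 by blank wells, after 72 hours of two-drug dosing of cells plated in 1536-well plates.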

[2] = tested on: 8305C (Thyroid Gland Carcinoma)
Outline: as §1

[3] = tested on: NCI-H747 (Colorectal Carcinoma)
Outline: as §1

COLO-829 (Melanoma) = tested on: COLO-829 (Melanoma)
Outline: as §1

[4] = tested on: SK-OV-3 (Ovarian Carcinoma)
Outline: as §1

Mewo (Melanoma) = tested on: Mewo (Melanoma)
Outline: as §1

[5] = tested on: CAPAN-1 (Pancreatic Carcinoma)
Outline: as §1

[6] = tested on: TE-4 (Esophageal Squamous Cell Carcinoma)
Outline: as §1

[7] = tested on: MHH-PREB-1 (B-Cell Non-Hodgkin's Lymphoma)
Outline: as §1

[8] = tested on: KARPAS-231 (B-Cell Non-Hodgkin's Lymphoma)
Outline: as §1

[9] = tested on: LU-139 (Small Cell Lung Carcinoma)
Outline: as §1

NCI-H2461 (Mesothelioma) = tested on: NCI-H2461 (Mesothelioma)
Outline: as §1

[10] = tested on: RKO (Colorectal Carcinoma)
Outline: as §1

[11] = tested on: SW626 (Colorectal Carcinoma)
Outline: as §1

SH-4 (Melanoma) = tested on: SH-4 (Melanoma)
Outline: as §1

[12] = tested on: Hs-633T (Other Solid Carcinomas)
Outline: as §1

[13] = tested on: 639-V (Bladder Carcinoma)
Outline: as §1

[14] = tested on: PCI-30 (Head and Neck Carcinoma)
Outline: as §1

[15] = tested on: SUP-T1 (T-Lymphoblastic Leukemia)
Outline: as §1

Compound | combination Emax [1] | combination Emax [2] | combination Emax [3] | combination Emax (COLO-829 (Melanoma)) | combination Emax [4] | combination Emax (Mewo (Melanoma)) | combination Emax [5] | combination Emax [6] | combination Emax [7] | combination Emax [8] | combination Emax [9] | combination Emax (NCI-H2461 (Mesothelioma)) | combination Emax [10] | combination Emax [11] | combination Emax (SH-4 (Melanoma)) | combination Emax [12] | combination Emax [13] | combination Emax [14] | combination Emax [15]
Cn1cnc2c(F)c(Nc3ccc(Br)cc3Cl)c(C(=O)NOCCO)cc21 [Selumetinib] + C[C@@H]1COCCN1C2=NC(=NC(=C2)C3(CC3)[S@](=N)(=O)C)C4=C5C=CNC5=NC=C4 [AZD6738] (first compound max 10 µM, 7x7, partner max 10 µM) | 0.405 | 0.534 | 0.776 | 0.597 | 0.32 | 0.466 | 0.585 | 0.791 | 0.675 | 0.639 | 0.053 | 0.571 | 0.945 | 0.681 | 0.91 | 0.748 | 0.464 | 0.371 | 0.713
Cn1cnc2c(F)c(Nc3ccc(Br)cc3Cl)c(C(=O)NOCCO)cc21 [Selumetinib] + C=CCn1c(=O)c2cnc(Nc3ccc(N4CCN(C)CC4)cc3)nc2n1-c1cccc(C(C)(C)O)n1 [AZD1775] (first compound max 10 µM, partner max 1 µM) | 0.616 | 0.481 | 0.793 | 0.481 | 0.365 | 0.47 | 0.59 | 0.642 | 0.777 | 0.982 | 0.332 | 0.569 | 0.904 | 0.724 | 0.94 | 0.628 | 0.455 | 0.173 | 0.809
NC1(C(=O)N[C@@H](CCO)c2ccc(Cl)cc2)CCN(c2ncnc3[nH]ccc23)CC1 [Capivasertib] + CCN(CCO)CCCOc1ccc2c(Nc3cc(CC(=O)Nc4cccc(F)c4)[nH]n3)ncnc2c1 [AZD2811] (first compound max 10 µM, 7x7, partner max 1 µM) | 1 | 0.452 | 0.631 | 0.35 | 0.394 | 0.401 | 0.225 | 0.748 | 0.257 | 0.551 | 0.293 | 0.564 | 0.615 | 0.292 | 0.323 | 0.432 | 0.387 | 0.28 | 0.83
COc1nnc2ccc(N3CCC(c4ccc(OCCN5CCN(C)C(=O)[C@H]5C)cc4)CC3)nn12 [AZD5153] + C[C@@H]1COCCN1C2=NC(=NC(=C2)C3(CC3)[S@](=N)(=O)C)C4=C5C=CNC5=NC=C4 [AZD6738] (first compound max 1 µM, 7x7, partner max 10 µM) | 0.968 | 0.674 | 0.809 | 0.259 | 0.481 | 0.604 | 0.54 | 0.898 | 0.893 | 0.752 | 0.947 | 0.649 | 0.923 | 0.798 | 0.666 | 0.912 | 0.813 | 0.404 | 0.844
CS(=O)(=O)CCNCc1ccc(-c2ccc3ncnc(Nc4ccc(OCc5cccc(F)c5)c(Cl)c4)c3c2)o1 [Lapatinib] + Cn1cnc2c(F)c(Nc3ccc(Br)cc3Cl)c(C(=O)NOCCO)cc21 [Selumetinib] (first compound max 10 µM, 7x7, partner max 10 µM) | 0.974 | 0.542 |  |  | 0.347 | 0.503 | 0.615 |  |  |  | 0.161 | 0.488 | 0.763 |  | 0.868 | 0.478 |  | 0.335 | 0.53
CS(=O)(=O)CCNCc1ccc(-c2ccc3ncnc(Nc4ccc(OCc5cccc(F)c5)c(Cl)c4)c3c2)o1 [Lapatinib] + NC1(c2ccc(-c3nc4ccn5c(=O)[nH]nc5c4cc3-c3ccccc3)cc2)CCC1 [MK-2206] (first compound max 10 µM, 7x7, partner max 10 µM) | 1 | 0.929 | 0.898 | 0.311 | 0.658 | 0.521 | 0.331 |  |  |  | 0.672 | 0.495 | 0.931 |  | 0.901 | 0.905 |  | 0.475 | 0.912
Cc1nc(-c2cn3c(n2)-c2ccc(-c4cnn(C(C)(C)C(N)=O)c4)cc2OCC3)n(C(C)C)n1 [Taselisib] + O=C(Nc1ccc2[nH]nc(-c3ccncc3)c2c1)[C@@H]1CCN(CC(=O)N2CCN(c3ccc(-c4ncccn4)cc3)CC2)C1 [SCH772984] (first compound max 10 µM, 7x7, partner max 5 µM) | 1 | 0.843 |  |  | 0.69 | 0.777 | 0.77 |  |  |  | 0.154 | 0.6 | 0.961 |  | 0.921 | 0.834 |  | 0.4 | 0.609
